Measured values: patent publication US20110077294A1, “R-(-) / S-(+)-7-[3-N SUBSTITUTED AMINO-2 HYDROXYPROPOXY] FLAVONES” (priority 2006, published 2011)

Columns and labels:
Assay type in all cases: in vivo
[1] = system: C57BL/KsBom-db/db mice; assay: Blood glucose profile of db/db mice during daily treatment (antihyperglycemic activity); conditions: for Blood glucose % change compared to control, day 1: day 1, vs sham; for Blood glucose % change compared to control, day 2: day 2, vs sham; for Blood glucose % change compared to control, day 3: day 3, vs sham; for Blood glucose % change compared to control, day 4: day 4, vs sham; for Blood glucose % change compared to control, day 5: day 5, vs sham; for Blood glucose % change compared to control, day 6: day 6, vs sham; for Blood glucose % change compared to control, day 7: day 7, vs sham; for Blood glucose % change compared to control, day 8: day 8, vs sham; for Blood glucose % change compared to control, day 9: day 9, vs sham
Procedure: (§1) C57BL/KsBom-db/db mice (12-18 weeks old), weighing around 35+g bred in the animal house of CDRI, Lucknow, were used in the present experiments. The mice were housed in groups of 3 to 5 (same sex) in a room controlled for temperature (23±2.0 ° C.) and 12/12 hours light/dark cycle (lights on at 6.00 am). Body weight of each animal was measured daily from day 1 to day 10 of the experiment. All animals had free access to fresh water and normal pellet diet except on the day of the postprandial protocol (day 6) and during the overnight fast before the OGTT on day 10. The animals always had access to water during experimental periods. Blood glucose was checked every morning up till day 10. On day 10 an oral glucose tolerance test (OGTT) was performed after an overnight fasting. Blood glucose was measured at −30.0 min and test compounds were administered. The blood glucose was again measured at 0 min just post treatment and at this juncture glucose solution was given at a dose of 3 gm/kg to all the groups including the vehicle treated group. The blood glucose levels were checked at 30 min, 60 min, 90 min and 120 min post glucose administration. The data was analyzed for its significance on Prism software.

[2] = system: C57BL/KsBom-db/db mice; assay: Oral glucose tolerance test (OGTT) on day 10 in db/db mice; conditions: 25 mg/kg; for Blood glucose profile, 0 min post glucose load / Blood glucose % change compared to control, 0 min post glucose load: OGTT day 10, 0 min; for Blood glucose % change compared to control, 0 min post glucose load / Blood glucose % change compared to control, 30 min post glucose load / Blood glucose % change compared to control, 60 min post glucose load / Blood glucose % change compared to control, 90 min post glucose load / Blood glucose % change compared to control, 120 min post glucose load / Blood glucose % change compared to control, −30 min post glucose load: vs sham; for Blood glucose profile, 30 min post glucose load / Blood glucose % change compared to control, 30 min post glucose load: OGTT day 10, 30 min; for Blood glucose profile, 60 min post glucose load / Blood glucose % change compared to control, 60 min post glucose load: OGTT day 10, 60 min; for Blood glucose profile, 90 min post glucose load / Blood glucose % change compared to control, 90 min post glucose load: OGTT day 10, 90 min; for Blood glucose profile, 120 min post glucose load / Blood glucose % change compared to control, 120 min post glucose load: OGTT day 10, 120 min; for Blood glucose profile, −30 min post glucose load / Blood glucose % change compared to control, −30 min post glucose load: OGTT day 10, −30 min
Procedure: as §1

[3] = system: C57BL/KsBom-db/db mice; assay: Serum lipid profile of treated db/db mice (antidyslipidemic activity); conditions: 25 mg/kg; for Cholesterol % change compared to control / HDL-Chol % change compared to control / Triglycerides % change compared to control: vs sham
Procedure: as §1

[4] = system: C57BL/KsBom-db/db mice; assay: as above; conditions: db/db mice, test dose 25 mg/kg

For CC(C)NCC(O)COc1ccc2c(=O)cc(-c3cc(O)cc(O)c3)oc2c1 (stereo in doubt) [S-002-857 (R), (R)-(−)-7-(2-Hydroxy-3-isopropylaminopropoxy)-3′,5′-dihydroxy flavone], the “blood glucose profile compared to sham treated (in words)” value ([1]; 25 mg/kg) was “marginal fall in blood glucose profile”, the “Blood glucose, day 1 post treatment” value ([1]; 25 mg/kg) was 12.5 ± 2.55 mM and the “Blood glucose % change compared to control, day 1” value ([1]; 25 mg/kg) was 0.0%. The “Blood glucose, day 2 post treatment” value ([1]; 25 mg/kg) was 12.3 ± 2.67 mM, the “Blood glucose % change compared to control, day 2” value ([1]; 25 mg/kg) was −1.25% and the “Blood glucose, day 3 post treatment” value ([1]; 25 mg/kg) was 12.1 ± 2.02 mM. For the same compound, the “Blood glucose % change compared to control, day 3” value ([1]; 25 mg/kg) was −3.28%, the “Blood glucose, day 4 post treatment” value ([1]; 25 mg/kg) was 11.5 ± 1.86 mM and the “Blood glucose % change compared to control, day 4” value ([1]; 25 mg/kg) was −11.5%. For the same compound, the “Blood glucose, day 5 post treatment” value ([1]; 25 mg/kg) was 11.9 ± 2.74 mM, the “Blood glucose % change compared to control, day 5” value ([1]; 25 mg/kg) was −13.1% and the “Blood glucose, day 6 post treatment” value ([1]; 25 mg/kg) was 11.6 ± 2.73 mM. For the same compound, the “Blood glucose % change compared to control, day 6” value ([1]; 25 mg/kg) was −10.7%, the “Blood glucose, day 7 post treatment” value ([1]; 25 mg/kg) was 11.7 ± 1.78 mM and the “Blood glucose % change compared to control, day 7” value ([1]; 25 mg/kg) was −22.0%. The “Blood glucose, day 8 post treatment” value ([1]; 25 mg/kg) was 11.0 ± 0.35 mM, the “Blood glucose % change compared to control, day 8” value ([1]; 25 mg/kg) was −13.4% and the “Blood glucose, day 9 post treatment” value ([1]; 25 mg/kg) was 11.5 ± 1.00 mM. For the same compound, the “Blood glucose % change compared to control, day 9” value ([1]; 25 mg/kg) was −14.0%, the “Blood glucose, day 10 post treatment” value ([1]; 25 mg/kg, day 10) was 11.9 ± 5.21 mM and the “Blood glucose % change compared to control, day 10” value ([1]; 25 mg/kg, day 10, vs sham) was −8.30%. The “oral glucose tolerance compared to sham treated (in words)” value [2] was “slight improvement in glucose tolerance”, the “Blood glucose profile, 0 min post glucose load” value [2] was 16.3 ± 3.91 mM and the “Blood glucose % change compared to control, 0 min post glucose load” value [2] was −7.05%. For the same compound, the “Blood glucose profile, 30 min post glucose load” value [2] was 27.6 ± 1.53 mM, the “Blood glucose % change compared to control, 30 min post glucose load” value [2] was −16.7% and the “Blood glucose profile, 60 min post glucose load” value [2] was 24.4 ± 2.99 mM. The “Blood glucose % change compared to control, 60 min post glucose load” value [2] was −10.0%, the “Blood glucose profile, 90 min post glucose load” value [2] was 20.6 ± 2.08 mM and the “Blood glucose % change compared to control, 90 min post glucose load” value [2] was −7.39%. The “Blood glucose profile, 120 min post glucose load” value [2] was 16.0 ± 1.73 mM, the “Blood glucose % change compared to control, 120 min post glucose load” value [2] was −14.3% and the “Blood glucose profile, −30 min post glucose load” value [2] was 11.8 ± 5.21 mM. For the same compound, the “Blood glucose % change compared to control, −30 min post glucose load” value [2] was −8.31%, the “Serum lipid profile: Cholesterol” value [3] was 160 ± 6.66 mg/dL and the “Serum lipid profile: HDL-Chol” value [3] was 59.0 ± 2.65 mg/dL. For the same compound, the “Serum lipid profile: Triglycerides” value [3] was 130 ± 3.06 mg/dL, the “serum cholesterol, triglycerides (lipid profile) compared to sham treated (in words)” value [3] was “no statistically significant difference” and the “Cholesterol % change compared to control” value [3] was −6.18%. The “HDL-Chol % change compared to control” value [3] was “+5.35%” and the “Triglycerides % change compared to control” value [3] was −1.72%.

With CC(C)(C)NC[C@@H](O)COc1ccc2c(=O)cc(-c3cc(OCc4ccccc4)cc(OCc4ccccc4)c3)oc2c1 [S-002-853 (R), (R)-(−)-7-(3-tert-butylamino-2-hydroxypropoxy)-3′,5′-dibenzyloxyflavone] the “antihyperglycemic and antidyslipidemic/antihyperlipidemic activity (in words)” value ([1]; 25 mg/kg) was “insignificant antihyperglycemic or antihyperlipidemic effects”, the “blood glucose profile compared to sham treated (in words)” value ([1]; 25 mg/kg) was “no significant difference in the blood glucose profile between the two groups at any day” and the “Blood glucose, day 1 post treatment” value ([1]; 25 mg/kg) was 12.0 ± 2.52 mM. For the same compound, the “Blood glucose % change compared to control, day 1” value ([1]; 25 mg/kg) was “+1.1%”, the “Blood glucose, day 2 post treatment” value ([1]; 25 mg/kg) was 12.4 ± 2.65 mM and the “Blood glucose % change compared to control, day 2” value ([1]; 25 mg/kg) was −31.9%. The “Blood glucose, day 3 post treatment” value ([1]; 25 mg/kg) was 10.3 ± 1.33 mM, the “Blood glucose % change compared to control, day 3” value ([1]; 25 mg/kg) was −24.1% and the “Blood glucose, day 4 post treatment” value ([1]; 25 mg/kg) was 13.3 ± 4.61 mM. The “Blood glucose % change compared to control, day 4” value ([1]; 25 mg/kg) was −18.1%, the “Blood glucose, day 5 post treatment” value ([1]; 25 mg/kg) was 12.3 ± 4.32 mM and the “Blood glucose % change compared to control, day 5” value ([1]; 25 mg/kg) was −24.0%. The “Blood glucose, day 6 post treatment” value ([1]; 25 mg/kg) was 12.1 ± 3.82 mM, the “Blood glucose % change compared to control, day 6” value ([1]; 25 mg/kg) was −19.8% and the “Blood glucose, day 7 post treatment” value ([1]; 25 mg/kg) was 14.5 ± 5.49 mM. For the same compound, the “Blood glucose % change compared to control, day 7” value ([1]; 25 mg/kg) was −31.9%, the “Blood glucose, day 8 post treatment” value ([1]; 25 mg/kg) was 13.4 ± 4.54 mM and the “Blood glucose % change compared to control, day 8” value ([1]; 25 mg/kg) was −35.4%. The “Blood glucose, day 9 post treatment” value ([1]; 25 mg/kg) was 13.5 ± 4.66 mM, the “Blood glucose % change compared to control, day 9” value ([1]; 25 mg/kg) was −38.3% and the Comparative antihyperglycemic activity: Average Fall ([1]; test dose 25 mg/kg, day given in brackets) was 38.3%. For the same compound, the “oral glucose tolerance compared to sham treated (in words)” value [2] was “no difference in oral glucose tolerance curve”, the “Blood glucose profile, 0 min post glucose load” value [2] was 20.3 ± 4.74 mM and the “Blood glucose % change compared to control, 0 min post glucose load” value [2] was −3.30%. The “Blood glucose profile, 30 min post glucose load” value [2] was 34.3 ± 16.9 mM, the “Blood glucose % change compared to control, 30 min post glucose load” value [2] was “+3.70%” and the “Blood glucose profile, 60 min post glucose load” value [2] was 25.9 ± 9.75 mM. The “Blood glucose % change compared to control, 60 min post glucose load” value [2] was 0.00%, the “Blood glucose profile, 90 min post glucose load” value [2] was 24.5 ± 9.13 mM and the “Blood glucose % change compared to control, 90 min post glucose load” value [2] was “+17.0%”. The “Blood glucose profile, 120 min post glucose load” value [2] was 23.0 ± 10.0 mM, the “Blood glucose % change compared to control, 120 min post glucose load” value [2] was “+24.9%” and the “Blood glucose profile, −30 min post glucose load” value [2] was 13.6 ± 0.46 mM. For the same compound, the “Blood glucose % change compared to control, −30 min post glucose load” value [2] was 17.4%, the “HDL-cholesterol levels compared to sham treated (in words)” value [3] was “no significant difference in the HDL-cholesterol levels” and the “Serum lipid profile: Cholesterol” value [3] was 144.0 ± 7.37 mg/dL. The “Serum lipid profile: HDL-Chol” value [3] was 58.0 ± 6.24 mg/dL, the “Serum lipid profile: Triglycerides” value [3] was 132.0 ± 11.5 mg/dL and the “serum cholesterol, triglycerides (lipid profile) compared to sham treated (in words)” value [3] was “no significant lowering in either the case of serum cholesterol or triglycerides”. For the same compound, the “Cholesterol % change compared to control” value [3] was −3.72%, the “HDL-Chol % change compared to control” value [3] was “+8.06%” and the “Triglycerides % change compared to control” value [3] was −9.72%. For the same compound, the “Comparative antihyperlipidemic activity: HDL-C” value [4] was “+8.06^ns”, the “Comparative antihyperlipidemic activity: T-Chol” value [4] was −3.72^ns and the “Comparative antihyperlipidemic activity: TG” value [4] was −9.72^ns.
